ChEMBL document CHEMBL1201862, “PubChem BioAssay data set” (2004)
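Grown in 96-well plates, cells were treated for 48 hours with each compound at five concentrations. Insufficient inhibition: endpoint recorded as highest concentration tested. GI50 marks 50% less growth.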 Active and inactive are the calls of the source. Rule as the data show it: active = GI50 up to about 1.1 µM and inactive = higher.

Columns and labels:
Test in all cases: DTP human tumour cell line panel, 48 h
M19-MEL = system: M19-MEL
KM-20L2 = system: KM-20L2
XF498 = system: XF498
DMS-273 = system: DMS-273
DMS-114 = system: DMS-114
DLD-1 = system: DLD-1
HOP-18 = system: HOP-18
SNB-78 = system: SNB-78
RXF 631 = system: RXF 631

| SMILES | GI50 (M19-MEL) | GI50 (KM-20L2) | GI50 (XF498) | GI50 (DMS-273) | GI50 (DMS-114) | GI50 (DLD-1) | GI50 (HOP-18) | GI50 (SNB-78) | GI50 (RXF 631) |
| --- | --- | --- | --- | --- | --- | --- | --- | --- | --- |
| O=C(c1ccccc1)c1nc2ccc(Cl)cc2cc1C(Br)Br | 0.418 µM (active) | 0.25 µM (active) | 0.933 µM (active) | 0.286 µM (active) | 1.79 µM (inactive) | 0.203 µM (active) | 0.344 µM (active) | – | – |
| COc1ccc(N2C(=O)C(N3C(=O)C=CC3=O)C2C=O)cc1 (stereo not given) | > 100 µM (inactive) | > 100 µM (inactive) | – | > 100 µM (inactive) | – | > 100 µM (inactive) | > 100 µM (inactive) | > 100 µM (inactive) | – |
| NC(=O)N/N=C/C(=C/Nc1ccccc1)[N+](=O)[O-] | > 100 µM (inactive) | > 100 µM (inactive) | > 100 µM (inactive) | > 100 µM (inactive) | > 100 µM (inactive) | > 100 µM (inactive) | > 100 µM (inactive) | – | – |
| CN(C)CCC(/C=C/c1ccccc1)=N\Nc1ccccc1 | 1.57 µM (inactive) | 0.241 µM (active) | – | 0.571 µM (active) | 2.07 µM (inactive) | 0.596 µM (active) | 4.5 µM (inactive) | 3.63 µM (inactive) | – |
| O=C1c2ccccc2C(=O)N1CCn1ccc(NC(c2ccccc2)(c2ccccc2)c2ccccc2)nc1=O | 16.8 µM (inactive) | 14.1 µM (inactive) | 13.9 µM (inactive) | 17.3 µM (inactive) | 18.4 µM (inactive) | 19.1 µM (inactive) | 24.2 µM (inactive) | 30.8 µM (inactive) | 15 µM (inactive) |
| COc1ccc([C@@]2(O)c3c(ccc(O)c3OC)[C@H]2OC)c(OC)c1 | 48.5 µM (inactive) | 66.5 µM (inactive) | 41.7 µM (inactive) | – | 22.1 µM (inactive) | 47.3 µM (inactive) | – | – | – |
| O=C(NC1C2CC3CC(C2)CC1C3)c1ccncn1 (stereo not given) | > 100 µM (inactive) | > 100 µM (inactive) | – | > 100 µM (inactive) | > 100 µM (inactive) | > 100 µM (inactive) | – | > 100 µM (inactive) | > 100 µM (inactive) |
| ON1CCc2c([nH]c3ccccc23)C1c1ccc(Cl)cc1 (stereo not given) | 36.8 µM (inactive) | 21.7 µM (inactive) | 22.6 µM (inactive) | 31.3 µM (inactive) | 19.4 µM (inactive) | 25.2 µM (inactive) | – | 33 µM (inactive) | – |
| CC/C(C)=C1\CCC(CN2CCOCC2)C1=O (stereo not given) | 14.9 µM (inactive) | 19.2 µM (inactive) | 19.1 µM (inactive) | 18.1 µM (inactive) | 5.26 µM (inactive) | 11.9 µM (inactive) | 19 µM (inactive) | 21.8 µM (inactive) | – |
| COc1ccc(C23c4ccc(OC)cc4CC2(c2ccc([N+](=O)[O-])cc2)Cc2cc(OC)ccc23)cc1 (stereo not given) | > 35.2 µM (inactive) | > 15.7 µM (inactive) | > 100 µM (inactive) | > 62.2 µM (inactive) | > 50 µM (inactive) | > 22.8 µM (inactive) | 1.17 µM (inactive) | > 100 µM (inactive) | – |
| CCN(CC)CC(=O)N1CCc2c([nH]c3ccccc23)C1c1cccnc1 (stereo not given) | > 100 µM (inactive) | > 100 µM (inactive) | > 100 µM (inactive) | > 100 µM (inactive) | > 100 µM (inactive) | > 100 µM (inactive) | > 100 µM (inactive) | > 100 µM (inactive) | > 100 µM (inactive) |
| OCCOc1ccc(-c2cc(-c3ccccn3)nc(-c3ccccn3)c2)cc1 | 0.0962 µM (active) | < 0.0383 µM (active) | 0.0387 µM (active) | 0.143 µM (active) | 0.0552 µM (active) | – | 0.166 µM (active) | 2.83 µM (inactive) | 0.465 µM (active) |
| C[C@@H](CC(O)C1OC1(C)C)[C@@H]1CC[C@]2(C)C3=CCC4C(C)(C)C(O)CC[C@]4(C)C3CCC12C (stereo not given in full) | 18.1 µM (inactive) | 15.4 µM (inactive) | 20.8 µM (inactive) | 13.3 µM (inactive) | – | 16.6 µM (inactive) | 20 µM (inactive) | – | – |
| O=c1c2ccc3cccc4c(=O)cc(c5ccccc15)-c2c34 | 20.3 µM (inactive) | > 100 µM (inactive) | – | > 100 µM (inactive) | 32 µM (inactive) | > 100 µM (inactive) | 22.7 µM (inactive) | – | – |
